Assay results published in ChEMBL document CHEMBL1146745, “Studies on anti-Helicobacter pylori agents. Part 3: A novel, efficacious cephem derivative, FR193879” (Bioorg Med Chem Lett, 2004).
Values after ≈ are worked out from the molar mass of the structure shown.

Columns and labels:
Rattus norvegicus [1] = experiment: Recovery rate from urine and bile was determined after iv administration at 20 mg/kg in rats; format: functional, organism-based; set-up: dose 20 mg/kg
Helicobacter pylori [2] = experiment: Minimum inhibitory activity against clarithromycin- and metronidazole-resistant strain 15069; format: functional
Helicobacter pylori [3] = experiment: Minimum inhibitory activity against clarithromycin- and metronidazole-resistant strain 16021; format: functional
Helicobacter pylori [4] = experiment: Minimum inhibitory activity against clarithromycin- and metronidazole-resistant strain 16043; format: functional
Bacteroides fragilis [5] = experiment: Stability towards beta-lactamase was determined in […] FP784; format: functional, organism-based
Helicobacter pylori [6] = experiment: Minimum inhibitory activity against Helicobacter pylori FP1836; format: functional
Helicobacter pylori [7] = experiment: Minimum inhibitory activity against Helicobacter pylori FP1757; format: functional
Rattus norvegicus [8] = experiment: In vivo gastric mucosa concentration administered perorally at 20 mg/kg was determined in rats at 2 hr; format: functional; details: route oral
[9] = Therapeutic efficacy at a dose of 0.32 mg/kg; format: ADME, organism-based; set-up: dose 0.32 mg/kg; details: in vivo
[10] = Therapeutic efficacy at an oral dose of 0.032 mg/kg in mouse; format: ADME, organism-based; set-up: dose 0.032 mg/kg, route oral; details: in vivo
[11] = Partition coefficient by HPLC retention as an index of polarity; format: ADME; details: octanol/water
[12] = Solubility at a pH of 2.0; format: physicochemical; details: pH 2
[13] = Therapeutic efficacy at an oral dose of 0.5 mg/kg in guinea pig; format: ADME, organism-based; set-up: dose 0.5 mg/kg, route oral; details: in vivo
Helicobacter pylori [14] = experiment: Minimum inhibitory concentration against Helicobacter pylori FP1757; format: functional
[15] = Solubility at a pH of 4.0; format: physicochemical; details: pH 4
[16] = Therapeutic efficacy at a dose of 0.1 mg/kg; format: ADME, organism-based; set-up: dose 0.1 mg/kg; details: in vivo
[17] = Therapeutic efficacy at an oral dose of 0.1 mg/kg in mouse; format: ADME, organism-based; set-up: dose 0.1 mg/kg, route oral; details: in vivo
[18] = Retention time by HPLC as an index of polarity
Rattus norvegicus [19] = experiment: In vivo gastric mucosa concentration administered perorally at 20 mg/kg was determined in rats at 1 hr; format: functional; details: route oral
Rattus norvegicus [20] = experiment: In vivo gastric mucosa concentration administered perorally at 20 mg/kg was determined in rats at 0.5 hr; format: functional; details: route oral
[21] = Therapeutic efficacy at an oral dose of 0.125 mg/kg in guinea pig; format: ADME, organism-based; set-up: dose 0.125 mg/kg, route oral; details: in vivo
[22] = Therapeutic efficacy at an oral dose of 0.32 mg/kg in mouse; format: ADME, organism-based; set-up: dose 0.32 mg/kg, route oral; details: in vivo
Rattus norvegicus [23] = experiment: In vivo gastric mucosa concentration administered perorally at 20 mg/kg was determined in rats at 4 hr; format: functional; details: route oral
[24] = Therapeutic efficacy at an oral dose of 2 mg/kg in guinea pig; format: ADME, organism-based; set-up: dose 2 mg/kg, route oral; details: in vivo
Canis familiaris = experiment: Non-toxic dose in dogs after 4 weeks of oral administration; format: functional, Canis lupus familiaris
Bacteroides fragilis [25] = experiment: Relative stability towards beta-lactamase was determined in […] FP784; format: functional

SMILES: O=C(Cc1ccccc1)NC1C(=O)N2C(C(=O)O)=C(Sc3cnns3)CS[C@H]12 (some centres undefined)
- Recovery rate (Rattus norvegicus [1]): 21%

SMILES: CC1(C)S[C@@H]2[C@H](NC(=O)[C@H](N)c3ccc(O)cc3)C(=O)N2[C@H]1C(=O)O [AMOXICILLIN]
- MIC (Helicobacter pylori [2]): 0.2 µg/mL (≈ 0.547 µM)
- MIC (Helicobacter pylori [3]): 0.025 µg/mL (≈ 0.0684 µM)
- MIC (Helicobacter pylori [4]): 0.05 µg/mL (≈ 0.137 µM)
- Km (Bacteroides fragilis [5]): 27.3 µg/mL
- Vmax (Bacteroides fragilis [5]): 0.0175
- MIC50 (Helicobacter pylori [6]): 0.05 µg/mL (≈ 0.137 µM)
- MIC50 (Helicobacter pylori [7]): 0.0125 µg/mL (≈ 0.0342 µM)

SMILES: Cc1nnc(SC2=C(C(=O)O)N3C(=O)C(NC(=O)Cc4ccccc4)[C@H]3SC2)s1 (some centres undefined)
- Gastric concentration (Rattus norvegicus [8]): 48 µg/g
- Ratio [9]: 5
- Ratio [10]: 1
- HPLC retention time [11]: 10 min
- solubility [12]: 53 µg/mL (≈ 118 µM)
- Ratio [13]: 2
- MIC (Helicobacter pylori [14]): 0.00156 µg/mL (≈ 0.00348 µM)
- solubility [15]: 1050 µg/mL (≈ 2340 µM)
- Recovery rate (Rattus norvegicus [1]): 33%
- Ratio [16]: 2
- Ratio [17]: 2
- HPLC retention time [18]: 10 min
- Gastric concentration (Rattus norvegicus [19]): 83 µg/g
- Gastric concentration (Rattus norvegicus [20]): 89 µg/g
- Ratio [21]: 0
- Ratio [22]: 5
- MIC50 (Helicobacter pylori [6]): 0.00313 µg/mL (≈ 0.00698 µM)
- Gastric concentration (Rattus norvegicus [23]): 23 µg/g
- Ratio [24]: 5
- Dose (Canis familiaris): <32 mg/kg

SMILES: O=C(Cc1ccccc1)NC1C(=O)N2C(C(=O)O)=C(Sc3nccs3)CS[C@H]12 (some centres undefined)
- Recovery rate (Rattus norvegicus [1]): 63%

SMILES: O=C(Cc1ccccc1)NC1C(=O)N2C(C(=O)O)=C(Sc3nncs3)CS[C@H]12 (some centres undefined)
- Recovery rate (Rattus norvegicus [1]): 9%

SMILES: Cc1nnc(SC2=C(C(=O)O)N3C(=O)[C@@H](NC(=O)Cc4csc(N)n4)[C@H]3SC2)s1
- Ratio [9]: 1
- HPLC retention time [11]: 1 min
- MIC (Helicobacter pylori [14]): 0.00078 µg/mL (≈ 0.00166 µM)
- Ratio [16]: 0

SMILES: O=C(N[C@H](CO)[C@H](O)c1ccc([N+](=O)[O-])cc1)C(Cl)Cl [CHLORAMPHENICOL]
- MIC (Helicobacter pylori [2]): 25 µg/mL (≈ 77.4 µM)
- MIC (Helicobacter pylori [3]): 50 µg/mL (≈ 155 µM)
- MIC (Helicobacter pylori [4]): 50 µg/mL (≈ 155 µM)

SMILES: O=C(O)Cc1csc(SC2=C(C(=O)O)N3C(=O)[C@@H](NC(=O)Cc4ccccc4)[C@H]3SC2)n1
- Gastric concentration (Rattus norvegicus [8]): 111 µg/g
- Ratio [10]: 2
- solubility [12]: 125 µg/mL (≈ 254 µM)
- Ratio [13]: 0
- solubility [15]: 1820 µg/mL (≈ 3700 µM)
- Ratio [17]: 1
- HPLC retention time [18]: 9.9 min
- Gastric concentration (Rattus norvegicus [19]): 150 µg/g
- Gastric concentration (Rattus norvegicus [20]): 377 µg/g
- Ratio [21]: 0
- Ratio [22]: 5
- MIC50 (Helicobacter pylori [6]): 0.00313 µg/mL (≈ 0.00637 µM)
- Gastric concentration (Rattus norvegicus [23]): 63 µg/g
- MIC50 (Helicobacter pylori [7]): 0.00039 µg/mL (≈ 0.000793 µM)
- Ratio [24]: 2

SMILES: Cc1ncc([N+](=O)[O-])n1CCO [METRONIDAZOLE]
- MIC (Helicobacter pylori [2]): 25 µg/mL (≈ 146 µM)
- MIC (Helicobacter pylori [3]): 50 µg/mL (≈ 292 µM)
- MIC (Helicobacter pylori [4]): 50 µg/mL (≈ 292 µM)

SMILES: NC(=O)Cc1csc(SC2=C(C(=O)O)N3C(=O)[C@@H](NC(=O)Cc4ccccc4)[C@H]3SC2)n1
- Gastric concentration (Rattus norvegicus [8]): 68 µg/g
- Ratio [10]: 1
- MIC (Helicobacter pylori [2]): 0.0063 µg/mL (≈ 0.0128 µM)
- MIC (Helicobacter pylori [3]): 0.0016 µg/mL (≈ 0.00326 µM)
- MIC (Helicobacter pylori [4]): 0.0016 µg/mL (≈ 0.00326 µM)
- solubility [12]: 431 µg/mL (≈ 879 µM)
- Ratio [13]: 3
- solubility [15]: 2210 µg/mL (≈ 4500 µM)
- Recovery rate (Rattus norvegicus [1]): 68%
- Ratio [17]: 4
- HPLC retention time [18]: 6.2 min
- Gastric concentration (Rattus norvegicus [19]): 163 µg/g
- Ratio (Bacteroides fragilis [25]): 1.06
- Gastric concentration (Rattus norvegicus [20]): 385 µg/g
- Ratio [21]: 0
- Km (Bacteroides fragilis [5]): 19.4 µg/mL
- Vmax (Bacteroides fragilis [5]): 0.647
- Ratio [22]: 5
- MIC50 (Helicobacter pylori [6]): 0.00313 µg/mL (≈ 0.00638 µM)
- Gastric concentration (Rattus norvegicus [23]): 38 µg/g
- MIC50 (Helicobacter pylori [7]): 0.00078 µg/mL (≈ 0.00159 µM)
- Ratio [24]: 5
- Dose (Canis familiaris): >100 mg/kg

SMILES: O=C(Cc1cccs1)N[C@@H]1C(=O)N2C(C(=O)[O-])=C(C[n+]3ccccc3)CS[C@H]12
- Km (Bacteroides fragilis [5]): 31.7 µg/mL
